This note sets out measurements from patent US12570642B2, “GLP-IR modulating compounds” (Gilead Sciences, Inc., priority 2021, dated 2026).

SMILES strings stand for the structures.

A word on the EC50: it is the concentration needed to bring the measured effect to its halfway point. Lower therefore signals greater potency.

The test deals with GLP-1R (Homo sapiens, UniProt P43220). Put plainly: GLP-1R Activation - cAMP Assay. Type of test: cell-based. The settings on record: each compound run on one of the two cAMP assays (Assay 1 or Assay 2, not specified). The essentials:
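cAMP rise read by HTRF after 30 min agonist exposure (10-point titration, 37 °C) in HBSS/20 mM Hepes/0.1% BSA, following 1 h pre-incubation. Cells: stable GLP-1R CHO line, 1,000/well, seeded overnight. Sigmoidal fit of response vs log concentration gives EC50.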
(cAMP levels reflect the balance of adenylyl cyclase and phosphodiesterase activity.)

The mark [1] stands for this setting: cAMP increase in CHO cells stably expressing GLP-1R.

Sequence of GLP-1R (P43220 24-463): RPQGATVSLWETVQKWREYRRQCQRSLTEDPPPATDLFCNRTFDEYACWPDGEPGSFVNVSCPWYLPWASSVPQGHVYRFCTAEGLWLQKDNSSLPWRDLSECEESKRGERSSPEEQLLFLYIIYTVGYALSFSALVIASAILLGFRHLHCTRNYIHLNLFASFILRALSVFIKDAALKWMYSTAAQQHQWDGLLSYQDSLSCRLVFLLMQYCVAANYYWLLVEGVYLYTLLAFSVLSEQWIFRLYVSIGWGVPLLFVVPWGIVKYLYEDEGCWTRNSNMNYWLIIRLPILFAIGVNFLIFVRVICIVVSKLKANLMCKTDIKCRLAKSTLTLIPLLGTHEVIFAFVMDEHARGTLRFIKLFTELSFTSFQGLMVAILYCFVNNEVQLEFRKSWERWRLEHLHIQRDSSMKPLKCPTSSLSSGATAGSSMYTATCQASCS

Under setting [1], `CC1(C)COCC1n1c(Cc2cc(F)c(-c3ccnc(OCc4ccc(C(F)F)cc4F)n3)cc2Cl)nc2c(F)cc(C(=O)O)cc21` (centres unmarked) [Example 344, 2-(2-chloro-4-(2-((4-(difluoromethyl)-2-fluorobenzyl)oxy)pyrimidin-4-yl)-5-fluorobenzyl)-1-(4,4-dimethyltetrahydrofuran-3-yl)-4-fluoro-1H-benzo[d]imidazole-6-carboxylic acid] displayed an EC50 of 0.147 nM. Still for that read-out and setting: for `Cc1cc(Cc2nc3c(F)cc(C(=O)O)cc3n2[C@@H]2COCC2(C)C)c(Cl)cc1-c1cccc(OCc2ccc(C#N)cc2)n1` [Example 133, (S)-2-(2-chloro-4-(6-((4-cyanobenzyl)oxy)pyridin-2-yl)-5-methylbenzyl)-1-(4,4-dimethyltetrahydrofuran-3-yl)-4-fluoro-1H-benzo[d]imidazole-6-carboxylic Acid] the value was 0.021 nM; for `Cn1c(=O)sc2cc(COc3cccc(-c4cc(F)c(Cc5nc6ccc(C(=O)O)cc6n5C[C@@H]5CCO5)cc4F)n3)ccc21` [Example 531, (S)-2-(2,5-difluoro-4-(6-((3-methyl-2-oxo-2,3-dihydrobenzo[d]thiazol-6-yl)methoxy)pyridin-2-yl)benzyl)-1-(oxetan-2-ylmethyl)-1H-benzo[d]imidazole-6-carboxylic acid], 0.396 nM.

With `CC1(C)COC[C@H]1n1c(Cc2cc(F)c(-c3cccc(OCc4ccc(Cl)c(F)c4)n3)cc2F)nc2ccc(C(=O)O)cc21` [Example 394, (S)-2-(4-(6-((4-chloro-3-fluorobenzyl)oxy)pyridin-2-yl)-2,5-difluorobenzyl)-1-(4,4-dimethyltetrahydrofuran-3-yl)-1H-benzo[d]imidazole-6-carboxylic acid], the EC50 under setting [1] turned out to be 0.243 nM. On the same count and under the same terms, for `CC1(C)COC[C@H]1n1c(Cc2cc(F)c(-c3cccc(OCc4cc(F)c(C#N)cc4F)n3)cc2F)nc2c(F)cc(C(=O)O)cc21` [Example 204, (S)-2-(4-(6-((4-cyano-2,5-difluorobenzyl)oxy)pyridin-2-yl)-2,5-difluorobenzyl)-1-(4,4-dimethyltetrahydrofuran-3-yl)-4-fluoro-1H-benzo[d]imidazole-6-carboxylic acid] the value was 0.09 nM. Still for that read-out and setting: for `COc1cc(Cl)ncc1COc1nc(-c2cc(Cl)c(Cc3nc4ccc(C(=O)O)cc4n3[C@@H]3COCC3(C)C)cc2C)ccc1F` [Example 323, (S)-2-(2-chloro-4-(6-((6-chloro-4-methoxypyridin-3-yl)methoxy)-5-fluoropyridin-2-yl)-5-methylbenzyl)-1-(4,4-dimethyltetrahydrofuran-3-yl)-1H-benzo[d]imidazole-6-carboxylic acid] the value was 0.734 nM. Turning to `CC1(C)COC[C@H]1n1c(Cc2cc(F)c(-c3ccc(F)c(OCc4ccc(C(F)(F)F)cc4)n3)cc2F)nc2ccc(C(=O)O)cc21` [Example 536, (S)-2-(2,5-difluoro-4-(5-fluoro-6-((4-(trifluoromethyl)benzyl)oxy)pyridin-2-yl)benzyl)-1-(4,4-dimethyltetrahydrofuran-3-yl)-1H-benzo[d]imidazole-6-carboxylic acid], under setting [1], the concentration for a half-maximal effect (EC50) came to 0.083 nM. Same read-out and setting: the value for `CC1(C)COC[C@H]1n1c(Cc2cc(F)c(-c3cccc(OCc4cc(F)c(C#N)cc4F)n3)cc2F)nc2ccc(C(=O)O)cc21` [Example 487, (S)-2-(4-(6-((4-cyano-2,5-difluorobenzyl)oxy)pyridin-2-yl)-2,5-difluorobenzyl)-1-(4,4-dimethyltetrahydrofuran-3-yl)-1H-benzo[d]imidazole-6-carboxylic acid] was 0.159 nM; that for `O=C(O)c1ccc2nc(Cc3cc(F)c(-c4cccc(OCc5ccc(Cl)cc5F)n4)cc3F)n(C34COCC(C3)C4)c2c1` [Example 406, 1-(3-oxabicyclo[3.1.1]heptan-1-yl)-2-(4-(6-((4-chloro-2-fluorobenzyl)oxy)pyridin-2-yl)-2,5-difluorobenzyl)-1H-benzo[d]imidazole-6-carboxylic acid] was 10.8 nM. `CC1(C)COC[C@H]1n1c(Cc2cc(F)c(-c3ccc(F)c(OCc4ccccc4F)n3)cc2F)nc2ccc(C(=O)O)cc21` [Example 477, (S)-2-(2,5-difluoro-4-(5-fluoro-6-((2-fluorobenzyl)oxy)pyridin-2-yl)benzyl)-1-(4,4-dimethyltetrahydrofuran-3-yl)-1H-benzo[d]imidazole-6-carboxylic acid] displayed an EC50 under setting [1] of 0.171 nM. Same read-out and setting: the value for `CC1(C)COCC1n1c(Cc2cc(F)c(-c3cccc(OCc4ccc(C#N)cc4F)n3)cc2F)nc2ccc(C(=O)O)cc21` (centres unmarked) [Example 78, 2-(4-(6-((4-cyano-2-fluorobenzyl)oxy)pyridin-2-yl)-2,5-difluorobenzyl)-1-(4,4-dimethyltetrahydrofuran-3-yl)-1H-benzo[d]imidazole-6-carboxylic Acid] was 0.36 nM; that for `CC1(C)COC[C@H]1n1c(Cc2ccc(-c3nc(OCc4ccc(C#N)cc4F)ccc3F)cc2F)nc2ccc(C(=O)O)cc21` [Example 364, (S)-2-(4-(6-((4-cyano-2-fluorobenzyl)oxy)-3-fluoropyridin-2-yl)-2-fluorobenzyl)-1-(4,4-dimethyltetrahydrofuran-3-yl)-1H-benzo[d]imidazole-6-carboxylic acid] was 0.158 nM; that for `COCCn1c(Cc2cc(F)c(-c3cccc(OCc4ccc(-c5cnn(C(F)F)c5)nc4)n3)cc2F)nc2ccc(C(=O)O)cc21` [Example 109, 2-(4-(6-((6-(1-(difluoromethyl)-1H-pyrazol-4-yl)pyridin-3-yl)methoxy)pyridin-2-yl)-2,5-difluorobenzyl)-1-(2-methoxyethyl)-1H-benzo[d]imidazole-6-carboxylic Acid] was 2.51 nM.

Molecule `N#Cc1ccc(COc2cccc(-c3cc(F)c(Cc4nc5ccc(C(=O)O)cc5n4C4COCC45CC5)cc3F)n2)c(F)c1` (centres unmarked) [Example 268, 2-(4-(6-((4-cyano-2-fluorobenzyl)oxy)pyridin-2-yl)-2,5-difluorobenzyl)-1-(5-oxaspiro[2.4]heptan-7-yl)-1H-benzo[d]imidazole-6-carboxylic acid] displayed an EC50 under setting [1] of 0.175 nM. Still for that read-out and setting: for `CC(C)OCCn1c(Cc2cc(F)c(-c3cccc(OCc4cnc(-n5ccnn5)cc4Cl)n3)cc2F)nc2ccc(C(=O)O)cc21` [Example 561, 2-(4-(6-((4-chloro-6-(1H-1,2,3-triazol-1-yl)pyridin-3-yl)methoxy)pyridin-2-yl)-2,5-difluorobenzyl)-1-(2-isopropoxyethyl)-1H-benzo[d]imidazole-6-carboxylic acid] the value was 0.558 nM. In turn, `CO[C@H]1CCOC[C@H]1n1c(Cc2cc(F)c(-c3cccc(OCc4ccc(C#N)cc4F)n3)cc2F)nc2ccc(C(=O)O)cc21` [Example 70, 2-(4-(6-((4-cyano-2-fluorobenzyl)oxy)pyridin-2-yl)-2,5-difluorobenzyl)-1-((3R,4S)-4-methoxytetrahydro-2H-pyran-3-yl)-1H-benzo[d]imidazole-6-carboxylic Acid] had an EC50 under setting [1] of 0.26 nM. The same measure, in the same setting: the value for `COCCn1c(Cc2cc(F)c(-c3cccc(OCc4ccc(-c5cc(C(F)(F)F)nn5C)cc4F)n3)cc2F)nc2ccc(C(=O)O)cc21` [Example 102, 2-(2,5-difluoro-4-(6-((2-fluoro-4-(1-methyl-3-(trifluoromethyl)-1H-pyrazol-5-yl)benzyl)oxy)pyridin-2-yl)benzyl)-1-(2-methoxyethyl)-1H-benzo[d]imidazole-6-carboxylic Acid] was 22.8 nM; that for `C[C@@H]1COC[C@H]1n1c(Cc2cc(F)c(-c3cccc(OCc4ccc(C#N)cc4F)n3)cc2F)nc2ccc(C(=O)O)cc21` (racemic) [Example 266, 2-(4-(6-((4-cyano-2-fluorobenzyl)oxy)pyridin-2-yl)-2,5-difluorobenzyl)-1-((3S,4S)-4-methyltetrahydrofuran-3-yl)-1H-benzo[d]imidazole-6-carboxylic acid] was 0.363 nM; that for `CC1(C)COC[C@H]1n1c(Cc2cc(F)c(-c3ccc(F)c(OCc4ccc(F)cc4)n3)cc2F)nc2ccc(C(=O)O)cc21` [Example 557, (S)-2-(2,5-difluoro-4-(5-fluoro-6-((4-fluorobenzyl)oxy)pyridin-2-yl)benzyl)-1-(4,4-dimethyltetrahydrofuran-3-yl)-1H-benzo[d]imidazole-6-carboxylic acid] was 0.031 nM. The same measure, in the same setting: for `N#Cc1ccc(COc2cccc(-c3cc(F)c(Cc4nc5ccc(C(=O)O)cc5n4C45COC(C4)C5)cc3F)n2)c(F)c1` [Example 66, 1-(2-oxabicyclo[2.1.1]hexan-4-yl)-2-(4-(6-((4-cyano-2-fluorobenzyl)oxy)pyridin-2-yl)-2,5-difluorobenzyl)-1H-benzo[d]imidazole-6-carboxylic Acid] the value was 12.9 nM; for `CC1(C)COC[C@H]1n1c(Cn2cc(F)c(-c3ccc(F)c(OCc4ccc(C#N)cc4F)n3)cc2=O)nc2c(F)cc(C(=O)O)cc21` [Example 132, (S)-2-((6-((4-cyano-2-fluorobenzyl)oxy)-5,5′-difluoro-2′-oxo-[2,4′-bipyridin]-1′(2′H)-yl)methyl)-1-(4,4-dimethyltetrahydrofuran-3-yl)-4-fluoro-1H-benzo[d]imidazole-6-carboxylic Acid], 0.043 nM. On the same count and under the same terms, the value for `CO[C@H](C)Cn1c(Cc2cc(F)c(-c3cccc(OCc4cc(F)c(Cl)cc4F)n3)cc2F)nc2c(F)cc(C(=O)O)cc21` [Example 353, (R)-2-(4-(6-((4-chloro-2,5-difluorobenzyl)oxy)pyridin-2-yl)-2,5-difluorobenzyl)-4-fluoro-1-(2-methoxypropyl)-1H-benzo[d]imidazole-6-carboxylic acid] was 1.18 nM. For `CO[C@H]1CN(C(C)=O)C[C@@H]1n1c(Cc2cc(F)c(-c3cccc(OCc4ccc(C#N)cc4F)n3)cc2F)nc2ccc(C(=O)O)cc21` [Example 16, 1-((3S,4S)-1-acetyl-4-methoxypyrrolidin-3-yl)-2-(4-(6-((4-cyano-2-fluorobenzyl)oxy)pyridin-2-yl)-2,5-difluorobenzyl)-1H-benzo[d]imidazole-6-carboxylic Acid], the EC50 ([…]) amounted to 4800 nM.
